Measured values reported in patent publication US7767854B2, “N-substituted phenylacetamide derivative and pharmaceutical composition containing the same” (Dainippon Sumitomo Pharma Co., Ltd., priority 2005, dated 2010).
Entries after “also recorded” stand apart in the source; their conditions may differ.

Tests used:
[1] = Analgesic effect of prior-art compounds (background statement)
male Std: Wistar rats = experiment: Pain test by plantar thermal stimuli (plantar test); type: in vivo; settings: Rattus norvegicus, 4 h, 50 μl of 0.03% (W/V) solution i.pl. into right hind-paw; 4 hours after administration; cut-off 25 seconds; read-out: % MPE (percent maximum possible effect, withdrawal latency)
In short: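 Male Wistar rats (170–220 g, 4/group) received 50 μl of a 0.03% (W/V) solution intraplantar into the right hind paw (vehicle: saline, 10% Tween 80, 10% ethanol). Infrared-evoked withdrawal latency (baseline ~10 s, 25 s cut-off, mean of 3 readings) was measured the day before and 4 h after dosing, and expressed as % MPE.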

male Std:ddY mice = experiment: Study for irritancy (eye-wiping test); type: in vivo, mouse
Method: Experiment 2: Study for Irritancy (Eye-Wiping Test)
In this experiment, we examined the irritancy of the compounds of the invention. The experiment was carried out according to Jancso, et al., [Acta. Physiol. Acad. Sci. Hung., 19, 113-131 (1961)] and Szallasi, et al., [Brit. J. Pharmacol., 119, 283-290 (1996)]. In more detail, the compounds of the invention were dissolved in a physiological saline solution containing 5% Tween 80 and 5% ethanol to prepare each 2 different concentrations (2 concentrations: 10 and 30 μg/ml). One drop of each the solution was dropped into an eye of male Std:ddY mice (5 […]/group; body weight, 20-30 g). The protective wiping behaviors with its front paws were counted for every one minute from 0 to 5 minutes after the administration. Then, the average counts in each one minute were calculated, and the maximum value among the averages was defined as the representative value. Using the saline solution containing […] and 5% ethanol as a vehicle solvent, the test mentioned above was also carried out.

[2] = cited from earlier work

| Compound | analgesic effect [1] | change in vivo at 300 µg/mL (male Std: Wistar rats) [%] | Representative value of counts of protective wiping behaviors (max. counts, counts/min) (male Std:ddY mice; 10 μg/ml, one drop into eye, 0 to 5 minutes) [counts/min] | irritancy (protective wiping behaviors, in words) (male Std:ddY mice; capsaicin 10 μg/ml, Example compounds up to 30 μg/ml) | irritancy ([2]; Arzneim.-Forsch., 25, 1877 (1975)) | stimulatory effect and desensitization ([2]; Arzneim.-Forsch., 26, 33 (1976)) |
| --- | --- | --- | --- | --- | --- | --- |
| COc1cc(CC(=O)NC2CCC(C)CC2)ccc1O (stereo not shown) | little analgesic effect |  |  |  |  |  |
| COc1cc(CNC(=O)CCCC/C=C/C(C)C)ccc1O [Capsaicin, (E)-8-methyl-N-vanillyl-6-nonenamide] |  | 39.2 | 20.0 | frequent protective wiping behaviors |  |  |
| COc1cc(CC(=O)NC2CCCCC2)ccc1O [drawing 3] | little analgesic effect |  |  |  | a little lower irritancy than capsaicin | strong stimulatory; also recorded: weak desensitization |
